Legend:
MES-SA-Dx5 = test: Cell viability after 4 hours (Cell Titer Glo), MES-SA-Dx5; type: cell-based, human; conditions: 4 h incubation; read-out: Activities [μM] MES-SA-Dx5 (p61)
Experimental: (§1) Human ovarian cancer cell lines OVCAR-3 (p 41), SKOV-3 (p 35) and the human uterine sarcoma cell line MES-SA-Dx5 (p 61) (multi-drug resistant clone), the human pancreatic cancer cell line Panc-1 (passage number 18), and human triple negative breast cancer cell line MDA-MB-231 (passage number 47) were grown in ATCC recommended medium, 10% fetal bovine serum, 100 IU/ml penicillin, 100 microg/ml streptomycin. Cells were typically seeded (2,000 cells per well) into 96 well plates and media was replaced after 48 hours of incubation. […] Each Phor-18-hFSH-β81-89 conjugate provided in lyophilized form was dissolved in saline and added to cells. The duration of incubation was 4 hours at 37° C. Cell viability was assessed after 4 hours using a luminometric assays (Promega, Cell Titer Glo, G755B, lot #00000031421). Controls contained saline or 0.1% triton as reference for 0 and 100% cell death, respectively.
(§2) Data were processed and analyzed using GraphPad Prism version 5.00 for Windows, GraphPad Software, San Diego Calif. USA, www.graphpad.com”. Statistical analysis for significance was determined by a two-tailed Student's T-test. Each study was conducted to achieve an N of at least 6.
(§3) In vitro activities were expressed as IC50 values for each cell line, time point and compound tested that were calculated using the Hill equation (Graph Pad Prizm software).

OVCAR-3 = test: Cell viability after 4 hours (Cell Titer Glo), OVCAR-3; type: cell-based, human; conditions: 4 h incubation; read-out: Activities [μM] OVCAR-3 (p41)
Experimental: as §1, §2, §3

OVCAR-3 cells = type: cell-based, human; conditions: OVCAR-3 (p47), values listed with increasing incubation time, times not stated
From the text: (§4) Membranes of non-cancerous cell lines are neutral and are resistant to cytolytic peptides, in contrast to cancer cell lines, which have a high phosphatidic acid content in their outer membrane.
(§5) The breast cancer cell lines studied were MDA-MB-4355 (estrogen receptor alpha negative), MCF-7 and T47D (estrogen receptor alpha positive), ovarian cancer cell lines (OVCAR-3 and SKOV-3), prostate cancer (LNCaP), the non-malignant breast epithelial cell line MCF-10A and the mouse fibroblast cell line NIH:3T3.
(§6) Cells were seeded into 96 well plates at a densitiy of 10,000 cells/well. […] Controls contained USP saline or 0.1% TritonX-100™ as reference for 0 and 100% cell death, respectively. […] Cell viability was assessed through formazan conversion assay (MTT assay, (CellTiter 96 Aqueous One, Promega # G3582). Formazan conversion was determined using a BioRad Benchmark Plus microplate spectrophotometer dual wavelengths at 490/630 nm at room temperature).
(§7) Data were calculated as fraction of absorption in TritonX-100™ containing wells representing 100% cell death versus 0% cell death in saline containing wells. Cytotoxicity was determined as IC50 using GraphPad Prism version 5.01 for Windows, GraphPad Software, San Diego Calif. […] 4 wells of each individual set of two 96 well plates were compared and analyzed. Statistical analysis for significance was determined by a two-tailed Student's T-test.

SKOV-3 cells = type: cell-based, human; conditions: SKOV-3, 24 hours incubation; read-out: IC50 (maximal efficacy)
From the text: as §4, §5, §6, §7

MDA-MB-435S xenograft = test: MDA-MB-435S xenograft, kinetics of tumor destruction after a single injection; type: in vivo, mice; conditions: single i.v. injection, 0.2 and 2 mg/kg
Experimental: In brief, Nu/Nu female mice, outbred strain, age 5 weeks (Charles River), were injected (s.c.) into the interscapular region with a MDA-MB-435S (passage #249)/Matrigel suspension (2.4×10^6 cells/mouse) as described in Example 10. […] The doses were given as a single bolus intravenous injection via lateral tail vein.
Mice were sacrificed 1, 2 and 16 hours after treatment with Phor 18-LHRH (338613) or saline. At study endpoint body weight, tumor weights were determined and tumors were fixed in phosphate buffered 10% formalin.

MDA-MB-435S.luc cells = test: Cell toxicity screening (MTT assay) in MDA-MB-435S.luc breast cancer cells; type: cell-based, human
From the text: This example describes screening for cell toxicity (IC50) and hemolytic activity using a human breast cancer cell line.
Eighteen βCG-ala and eight LHRH conjugated fusion constructs were studied and compared to Phor21-βCG-ala and unconjugated Phor21 and Phor 18 (338913)=CLIP71 peptides. The human breast cancer cell line MDA-MB-435S.luc, which over expresses chorionic gonadotrophin (CG) and luteinizing hormone-releasing hormone (LHRH) receptors, was used to screen at passage numbers 248-252. The MDA-MB-435S.luc cell line was constructed from the MDA-MB-435S cell line obtained from the American Type Cell Culture Collection by stable transfection with the plasmid PRC/CMV-luc containing the Photinus pyralis luciferase gene and an […] by lipofection. The stably transfected cell line was selected using G418 and the clones with the highest expression for the luciferase gene were tested for their LH and LHRH receptor expression.
MDA-MB-435S.luc cells were grown in Leibovitz's L 15 medium, 10% fetal bovine serum, 0.01 mg/ml bovine insulin, 100 IU/ml penicillin, 100 microg/ml streptomycin. The cells were cultured in tight closed flasks. […]
Data were processed and analyzed using Graph Pad Prizm 4™ software (Graph Pad Prizm, Inc). Statistical analysis for significance was determined by a two-tailed Student's T-test. […]

NIH:3T3 = type: cell-based, mouse; conditions: non cancerous cell line 3T3
From the text: as §4, §5, §6, §7

| Substance | IC50 (MES-SA-Dx5) [µM] | IC50 (OVCAR-3) [µM] | IC50 (OVCAR-3 cells) [nM] | IC50 (SKOV-3 cells) [µM] | Time after injection to destruction of tumors (MDA-MB-435S xenograft) [h] | fold more potent (toxic) than Phor21-βCG-ala (MDA-MB-435S.luc cells) [fold] | IC50 (NIH:3T3) [µM] |
| --- | --- | --- | --- | --- | --- | --- | --- |
| KFAKFAK KFAKFAK KFAK [Phor18] | 28.1 ± 2.5 | 20.5 ± 5.1 |  |  |  |  |  |
| KFAKFAKKFAKFAKKFAKQHWSYGLRPG [Phor18-LHRH] |  |  | 500 | 11.5 | 1 | 2 | > 10 |
